Data reported in PMC12338828, “Evaluation of organotin (IV) dithiocarbamate compounds as potential anti-leukemia agents towards CCRF-CEM (CCL-119) cell line: Cytotoxic, apoptotic, cell cycle and genotoxic study” (PLOS One, 2025).
Values joined by “and” are separate entries in the source; they are usually repeats but may differ in a detail not shown here. Equal entries are not always repeated. Where two headings read alike, the source gives them in different places.

Experiments:
WIL2-NS cells = test system: WIL2-NS cells; design: method as in Rasli et al. (2023); conditions: non-cancerous cells; 24 hours of exposure; graph referred to earlier paper; ref Rasli et al. (2023); cited from earlier work
in vitro = conditions: human
Procedure: (§1) The T-acute lymphoblastic leukemia cell line, CCRF-CEM (CCL-119™), and a non-cancerous cell, WIL2-NS (CRL-8155™), were purchased from the American Type Culture Collection (ATCC). Both are suspension types of cells and were cultured in Roswell Park Memorial Institute Medium 1640 (RPMI-1640) (Sigma-Aldrich), supplemented with 10% Fetal Bovine Serum (FBS) (Capricorn Scientific) and 1% penicillin-streptomycin (Nacalai Tesque) to obtain the complete growth medium and were incubated at 37 °C with a 5% CO2 incubator. Both suspension cells are used for tests when the cells’ passage becomes passage 3–10 (maximum).
(§2) All stock solutions of the organotin (IV) dithiocarbamate compounds were prepared at 10 mM and dissolved in dimethyl sulphoxide (DMSO) (ChemAR®). The stock solutions were stored at 4°C; fresh dilutions were made by adding the RPMI-1640 medium before the experiment. The dilution is carried out using the serial dilution method to obtain the desired concentrations, which are 5 µM, 2.5 µM, 1.25 µM, 0.63 µM, 0.32 µM, and 0.16 µM in this study. Vincristine (VCR) is used as a positive control in this study.
(§3) Both CCL-119 and WIL2-NS cells were seeded in a 96-well plate at a final concentration of 5 x 10^5 cells/well and treated with 5 µM, 2.5 µM, 1.25 µM, 0.63 µM, 0.32 µM, and 0.16 µM of organotin (IV) dithiocarbamate compound for 24 hours at 37°C with 5% CO2. VCR was used as a positive control in this study, while cells without treatment were used as a negative control. After 24 hours of exposure, 20 µL of MTT (Merck) salt solution was added into each well and incubated for another 4 hours. The plate was wrapped with aluminium foil as MTT salt is light sensitive. After 4 hours, the purple crystal formazan was formed. All the medium was removed carefully from each well, and 200 µL DMSO was added to each well to dissolve the purple formazan crystal. Then, the plates were incubated for an additional 15 minutes. The results were analyzed and recorded using an ELISA microplate reader at 570 nm. The data was then plotted into a graph, and IC50 values were determined.
(§4) The selectivity index (SI) is determined by dividing the cytotoxic activity (IC50 value) of each compound on a non-cancerous cell line (WIL2-NS) by the leukemia cell line (CCL-119). […] WIL2- NS cell lines were selected as the comparator because it is a non-cancerous human B lymphoblast cell line, which is like CCL-119 (T-lymphoblastic leukemia), derived from lymphocytes. This choice ensures that comparisons are made between biologically similar cell types, minimizing variability that could arise from differences in tissue origin or lineage.

CCL-119 cells [1] = assay: MTT cytotoxicity assay; conditions: for IC50: read-out: IC50 (µM) CCL-119; for Selectivity Index (SI): IC50 WIL2-NS / IC50 CCL-119; for Selectivity Index (SI) / cell viability at 0.31 µM / cell viability at 0.63 µM / cell viability at 1.25 µM / cell viability at 2.50 µM / cell viability at 5.00 µM: 24 hours; for cell viability at 0.31 µM / cell viability at 0.63 µM / cell viability at 1.25 µM / cell viability at 2.50 µM / cell viability at 5.00 µM: single replicates n1-n3, untreated = 100.00; for cell viability at 2.50 µM: 2.5 µM
Procedure: as §1, §2, §3, §4

CCL-119 cells [2] = assay: Cell cycle analysis (PI/RNase staining); format: cell-based; conditions: 24 hours at IC50; single replicates n1-n3
Procedure: The cells were cultured and seeded in a 6-well plate at 1 x 10^6 cells/mL. VCR was used as a positive control, and untreated cells were used as a negative control in this assay. The concentration of the compounds and VCR was followed by IC50 values that were taken from the MTT assay.
After 24 hours of incubation, all cells in the plate were transferred to the Eppendorf tube and centrifuged for 5 minutes at 4°C at 1500 rpm. After centrifuging, the supernatant was removed, and cells were washed with 500 µL cold PBS three times. The pellet was fixed by using 70% ethanol overnight at −20°C. Next, the samples were stained with 500 µL of PI/RNase staining buffer and incubated for 15 minutes. The samples were then transferred into Falcon tubes. The data was recorded using a flow cytometer and analyzed using ModFit LT software.

[3] = Mode of cell death, Annexin V-FITC/PI staining (flow cytometry); format: cell-based; conditions: human, Viable (Q3)
Procedure: (§5) The mode of cell death can be observed through the Annexin V-FITC/PI staining (BD, USA). The result of this test is either apoptosis or necrosis. […] VCR was used as a positive control, while cells without any treatment were used as a negative control. Then, the plate was incubated for 24 hours. After the incubation, the cell suspension in each well was collected into different Eppendorf tubes. The tubes were then centrifuged for 5 minutes at 1500 rpm at 4°C. After the centrifuge, the supernatant in the tubes was removed, and the cell pellets were washed twice with cold PBS. Then, centrifuge the tubes again and remove the supernatant. Next, 100 µL of Annexin V binding buffer was resuspended in each tube, and 5 µL Annexin V-FITC was pipetted into the tube to stain the cells for 15 minutes at room temperature, dark. After that, 5 µL of propidium iodide was piped into the tube for 5 minutes. The staining process is done in dark conditions. Lastly, the sample was transferred into the Falcon tube, and each tube was resuspended in 400 µL of Annexin V binding buffer. The sample was analyzed using a flow cytometer (BD FACS Canto II) within one hour.

CCL-119 cells [4] = assay: as above; format: cell-based; conditions: for Early Apoptosis (Q4) / Late Apoptosis (Q2) / Necrosis (Q1) / Viable (Q3): 24 hours at IC50, single replicates n1-n3; for cell death through apoptosis (population of cells): 24 hours, treated at IC50, early + late apoptosis
Procedure: as §5

CCL-119 cells [5] = assay: Alkaline comet assay; format: cell-based
Procedure: VCR was used as a positive control, and untreated cells were used as a negative control in this assay. The cells were incubated for 1 hour. After incubation, cells in each well were transferred to the Eppendorf tube to centrifuge for 5 minutes at 4°C by using a refrigerated microcentrifuge. The supernatant was removed, and the samples were washed with 1 mL of cold PBS. This process was repeated 3 times. After completion of the process, the supernatant was removed, and the pellet was left for a while on top of the ice while preparing the slide.
About 140 µL of normal melting agar (NMA) is pipetted on top of the fully frosted slide, and a cover slip is put on the agar for 5 minutes or until the agar fully solidifies. After that, the cover slip was removed, and 80 µL of low melting agar (LMA) was added to an Eppendorf tube containing the pellet of cells. The suspension was then transferred into a frosted slide with NMA agar. The cover slip was then put back on top of the frosted slide for 10 minutes or until dry. Next, the slide was transferred into a Coplin jar that contained lysis buffer solution and Triton X-100. The slides were then incubated at 4°C overnight. The slides were arranged on an electrophoresis tank filled with electrophoresis buffer for 20 minutes. Electrophoresis is done for another 20 minutes at 25 V with 300 mA. The slides were washed with a neutralization buffer solution 3 times at a 5-minute time interval. Finally, 30 µL of ethidium bromide (50 µg/mL) was added, and the slide was observed by using fluorescence microscopy (OLYMPUS BX51TR). CometScore software is used to analyze the DNA damage of the cells. The comet assay was performed under alkaline conditions (pH > 13) to detect both single- and double-strand DNA breaks.

Jurkat E6.1 cells = test system: Jurkat E6.1 cells; design: method as in Awang et al. (2015) [26]; conditions: ref Awang et al. (2015) [26]; cited from earlier work
[6] = 1 hour of exposure, single replicates n1-n3
[7] = 24 hours of exposure, mean ± SEM, n = 3

Compound | IC50 (WIL2-NS cells) | Selectivity Index (SI) (CCL-119 cells [1]) | cells in G0/G1 phase (CCL-119 cells [2]) | cells in G2/M phase (CCL-119 cells [2]) | cells in S phase (CCL-119 cells [2]) | Early Apoptosis (Q4) (CCL-119 cells [4]) | Late Apoptosis (Q2) (CCL-119 cells [4]) | Necrosis (Q1) (CCL-119 cells [4]) | cell death through apoptosis (population of cells) (CCL-119 cells [4]) | Tail moment (CCL-119 cells [5]; 1 hour of exposure, mean ± SEM) | percentage of DNA intensity in the tail (CCL-119 cells [5]; 1 hour of exposure, mean ± SEM) | % DNA intensity (CCL-119 cells [5]; [6]) | Tail moment (CCL-119 cells [5]; [6]) | cell viability at 0.31 µM (CCL-119 cells [1]) | cell viability at 0.63 µM (CCL-119 cells [1]) | cell viability at 1.25 µM (CCL-119 cells [1]) | cell viability at 2.50 µM (CCL-119 cells [1]) | cell viability at 5.00 µM (CCL-119 cells [1]) | IC50 (CCL-119 cells [1]; [7]) | Viable (Q3) (CCL-119 cells [4]) | also measured
CC[C@]1(O)C[C@H]2CN(CCc3c([nH]c4ccccc34)[C@@](C(=O)OC)(c3cc4c(cc3OC)N(C=O)[C@H]3[C@@](O)(C(=O)OC)[C@H](OC(C)=O)[C@]5(CC)C=CCN6CC[C@]43[C@@H]65)C2)C1 [VCR, Vincristine, reference compound] | 2.89 ± 0.03 µM | below 2 | 36.70% and 30.32% and 29.02% | 5.35% and 8.00% and 3.69% | 57.95% and 61.68% and 67.28% | 39.2% and 38.7% and 37.4% | 19% and 17.2% and 17.9% | 0.45% and 0.54% and 0.51% | 56.46% | 4.17 ± 0.74 A.U | 8.48 ± 1.09% | 6.493% and 8.677% and 10.2647% | 2.837 A.U and 4.286 A.U and 5.38 A.U | – | – | – | – | – | – | – | viability at 24 h, 0.63 µM (in vitro; cell viability at 0.63 µM): 50.6%; viability at 24 h, 1.25 µM (in vitro; cell viability at 1.25 µM): 46.3%; viability at 24 h, 5 µM (in vitro; cell viability at 5.00 µM): 41.6%; IC50 (CCL-119 cells [1]; 24 h): 1.82 ± 1.53 µM; Selectivity Index (SI) (CCL-119 cells [1]; listed as Vincristine (VCR)): 1.59; viability at 24 h [3]: 44.4%
C=CCN(CC=C)C(=S)[S][Sn]([S]C(=S)N(CC=C)CC=C)([c]1ccccc1)[c]1ccccc1 [ODTC 2, diphenyltin (IV) diallyl dithiocarbamate] | 0.52 ± 0.14 µM | 2.36 | 51.19% and 55.53% and 53.01% | 1.93% and 1.68% and 4.38% | 46.88% and 42.78% and 42.61% | 36.1% and 39.2% and 31.1% | 31.5% and 32.9% and 28.1% | 1% and 0.6% | 66.3% | 6.83 ± 2.58 A.U | 10.18 ± 0.89% | 9.179% and 9.419% and 11.9522% | 5.421 A.U and 3.237 A.U and 11.8306 A.U | 49.85% and 27.71% and 26.10% | 26.34% and 15.19% and 17.94% | 29.61% and 16.46% and 16.39% | 28.76% and 19.14% and 15.77% | 31.88% and 17.53% and 10.93% | 0.22 ± 0.04 µM | 31.4% and 27% and 40.2% | DNA damage / genotoxic effect (in words) (CCL-119 cells [5]): caused detectable DNA damage; DNA damage class (CCL-119 cells [5]; 1 hour of exposure): class 2
CCN(CC)C(=S)[S][Sn]([CH3])([CH3])[S]C(=S)N(CC)CC [ODTC 7, dimethyltin (IV) diethyl dithiocarbamate] | 0.5 ± 0.34 µM | – | 70.20% and 67.80% and 60.00% | 1.80% and 0.20% and 1.00% | 28.00% and 32.00% and 39.00% | 24.7% and 24.4% and 29.9% | 70.3% and 71.5% and 65.3% | 0.7% and 0.4% | 95.6% | – | – | 6.521% and 7.002% and 7.823% | 5.822 A.U and 6.511 A.U and 7.52 A.U | 53.85% and 25.00% and 27.93% | 22.79% and 38.51% and 14.94% | 25.40% and 25.00% and 5.26% | 11.18% and 20.05% and 9.03% | 4.79% and 42.34% and 14.76% | 0.5 ± 0.3 µM | 4.4% and 3.7% and 4.2% | DNA damage / genotoxic effect (in words) (CCL-119 cells [5]; 1 hour of exposure, damage when TM > 5 A.U. and TI > 10%): no DNA damage
CCCCN(C(=S)[S][Sn]([c]1ccccc1)([c]1ccccc1)[c]1ccccc1)c1ccccc1 [triphenyltin (IV) butylphenyl dithiocarbamate] | – | – | – | – | – | – | – | – | – | – | – | – | – | – | – | – | – | – | – | – | mode of cell death in Jurkat E6.1 cells (Jurkat E6.1 cells): predominant induction of early-phase apoptotic cell death
CC(C)N(C(=S)[S][Sn]([CH3])([CH3])[S]C(=S)N(C(C)C)C(C)C)C(C)C [ODTC 6, dimethyltin (IV) diisopropyl dithiocarbamate] | 5 ± 1.04 µM | – | 65.00% and 60.00% and 55.00% | 4.80% and 5.00% and 2.80% | 30.20% and 35.00% and 42.20% | 44.7% and 48.9% and 45.6% | 33.5% and 23.8% and 26.2% | 0.1% and 0.3% and 0.2% | 74.2% | – | – | 4.005% and 4.8% and 5.931% | 3.51 A.U and 4.102 A.U and 5.014 A.U | 58.47% and 122.11% and 74.00% | 54.60% and 100.55% and 42.63% | 68.83% and 73.56% and 74.68% | 43.76% and 67.94% and 56.55% | 56.86% and 66.74% and 57.64% | 3.1 ± 1.08 µM | 21.6% and 27% and 28.1% | DNA damage / genotoxic effect (in words) (CCL-119 cells [5]): no DNA damage
